Here are results for two molecules from ChEMBL document CHEMBL1126778, “Adenosine A1 antagonists. 3. Structure-activity relationships on amelioration against scopolamine- or N6-((R)-phenylisopropyl)adenosine-induced cognitive disturbance” (J Med Chem, 1993).

Assay [1] relates to Mus musculus. Description: Acquisition time in (R)-PIA) induced avoidance test (performed in mice) for antagonistic activity after peroral administration of 0.08 mg/kg (n=15). The class given is functional. As to conditions: route oral.
Assay [2] concerns Mus musculus. The experiment in a line: Acquisition time in (R)-PIA) induced avoidance test (performed in mice) for antagonistic activity after peroral administration of 0.31 mg/kg (n=15). The class given is functional. As to conditions: route oral.
Assay [3] deals with Mus musculus. Description: Acquisition time in (R)-PIA) induced avoidance test (performed in mice) for antagonistic activity after peroral administration of 1.25 mg/kg (n=15). As to conditions: route oral. The class given is functional.
Assay [4] concerns Mus musculus. The experiment in a line: Acquisition time in (R)-PIA) induced avoidance test (performed in mice) for antagonistic activity after peroral administration of 5 mg/kg (n=15). As to conditions: route oral. The class given is functional.
Assay [5] deals with Mus musculus. The experiment in a line: Retention time in (R)-PIA) induced avoidance test (performed in mice) for antagonistic activity after peroral administration of 1.25 mg/kg (n=15) (P<0.005). Also on record: dose 1.25 mg/kg. The class given is functional, organism-based.
For assay [6], the system named is Mus musculus. The experiment in a line: Retention time in (R)-PIA) induced avoidance test (performed in mice) for antagonistic activity after peroral administration of 20 mg/kg (n=15) (P<0.05). The class given is functional, organism-based. Also on record: dose 20 mg/kg.
For assay [7], the system named is Mus musculus. The experiment in a line: Retention time in (R)-PIA) induced avoidance test (performed in mice) for antagonistic activity after peroral administration of 0.08 mg/kg (n=15) (P<0.005). The class given is functional, organism-based. Also noted: dose 0.08 mg/kg.
The test system of assay [8] is Mus musculus. The experiment in a line: Retention time in (R)-PIA) induced avoidance test (performed in mice) for antagonistic activity after peroral administration of 0.31 mg/kg (n=15) (P<0.01). Format: functional, organism-based. Also on record: dose 0.31 mg/kg.
Assay [9] relates to Mus musculus. The experiment in a line: Tested for locomotor activity after oral administration of 10 mg/kg for 120 min. Format: functional.
For assay [10], the system named is Mus musculus. The experiment in a line: Tested for locomotor activity after oral administration of […] for 120 min. The class given is functional.
The test system of assay [11] is Rattus norvegicus. Description: Acquisition time in Scopolamine induced avoidance test (performed in rat) for antagonistic activity after peroral administration of 1.25 mg/kg (n=18). Format: functional. As to conditions: route oral.
Assay [12] has as its system Rattus norvegicus. The experiment in a line: Acquisition time in Scopolamine induced avoidance test (performed in rat) for antagonistic activity after peroral administration of 0.02 mg/kg (n=18). Format: functional. As to conditions: route oral.
Assay [13] relates to Rattus norvegicus. The experiment in a line: Acquisition time in Scopolamine induced avoidance test (performed in rat) for antagonistic activity after peroral administration of 0.08 mg/kg (n=18). The class given is functional. As to conditions: route oral.
For assay [14], the system named is Rattus norvegicus. The experiment in a line: Acquisition time in Scopolamine induced avoidance test (performed in rat) for antagonistic activity after peroral administration of 0.31 mg/kg (n=18). The class given is functional. As to conditions: route oral.
Assay [15] deals with Rattus norvegicus. Description: Acquisition time in Scopolamine induced avoidance test (performed in rat) for antagonistic activity after peroral administration of 5 mg/kg (n=18). The class given is functional. As to conditions: route oral.
In assay [16] the test system is Rattus norvegicus. The experiment in a line: Retention time in Scopolamine induced avoidance test (performed in […]) for antagonistic activity after peroral administration of 1.25 mg/kg (n=18) (P<0.05). The class given is functional, organism-based. Also on record: dose 1.25 mg/kg.
The subject of assay [17] is Rattus norvegicus. Description: Retention time in Scopolamine induced avoidance test (performed in rat) for antagonistic activity after peroral administration of 0.02 mg/kg (n=18) (P<0.05). Also noted: dose 0.02 mg/kg. The class given is functional, organism-based.
Assay [18] concerns Rattus norvegicus. The experiment in a line: Retention time in Scopolamine induced avoidance test (performed in rat) for antagonistic activity after peroral administration of 0.31 mg/kg (n=18) (P<0.005). The class given is functional, organism-based. Also on record: dose 0.31 mg/kg.
The subject of assay [19] is Rattus norvegicus. Description: Retention time in Scopolamine induced avoidance test (performed in rat) for antagonistic activity after peroral administration of 5 mg/kg (n=18) (P<0.05). Also on record: dose 5 mg/kg. The class given is functional, organism-based.
For assay [20], the system named is Rattus norvegicus. The experiment in a line: Retention time in Scopolamine induced avoidance test (performed in rat) for antagonistic activity after peroral administration of 0.08 mg/kg (n=18) (P<0.05). The class given is functional, organism-based. Also noted: dose 0.08 mg/kg.
Another assay concerns the target T1, Adenosine receptor A1 (Cavia porcellus, UniProt P47745).
T1 sequence (P47745 whole entry): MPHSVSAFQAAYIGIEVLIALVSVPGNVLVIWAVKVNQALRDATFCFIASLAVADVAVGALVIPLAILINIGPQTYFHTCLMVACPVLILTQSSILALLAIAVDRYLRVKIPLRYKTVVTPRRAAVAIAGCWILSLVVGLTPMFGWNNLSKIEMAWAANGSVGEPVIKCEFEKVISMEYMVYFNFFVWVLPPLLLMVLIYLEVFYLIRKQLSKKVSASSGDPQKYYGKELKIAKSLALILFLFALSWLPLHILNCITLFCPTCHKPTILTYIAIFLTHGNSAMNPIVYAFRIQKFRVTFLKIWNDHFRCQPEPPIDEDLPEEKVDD
Description: Binding affinity against Adenosine A1 receptor from guinea pig forebrain membranes by N6-[3H]- cyclohexyladenosine displacement.

A further assay addresses Adenosine A2 receptor (Rattus norvegicus, UniProt P29276+P30543). Description: Binding affinity against Adenosine A2 receptor from rat striatal membranes with N-[3H] ethyladenosin-5'-uronamide.
For assay [21], the system named is Mus musculus. Description: Acquisition time in (R)-PIA) induced avoidance test (performed in mice) for antagonistic activity after peroral administration of 0.08 mg/kg. Format: functional. As to conditions: route oral.
The subject of assay [22] is Mus musculus. Description: Acquisition time in (R)-PIA) induced avoidance test (performed in mice) for antagonistic activity after p.o. administration of 0.31 mg/kg. The class given is functional. As to conditions: route oral.
In assay [23] the test system is Mus musculus. Description: Acquisition time in (R)-PIA) induced avoidance test (performed in mice) for antagonistic activity after p.o. administration of 1.25 mg/kg. As to conditions: route oral. The class given is functional.
Assay [24] has as its system Mus musculus. Description: Retention time in (R)-PIA) induced avoidance test (performed in mice) for antagonistic activity after p.o. administration of 1.25 mg/kg. Format: functional, organism-based. Also noted: dose 1.25 mg/kg.
The subject of assay [25] is Mus musculus. The experiment in a line: Retention time in (R)-PIA) induced avoidance test (performed in mice) for antagonistic activity after peroral administration of 5 mg/kg. The class given is functional, organism-based. Also on record: dose 5 mg/kg.
Assay [26] deals with Mus musculus. Description: Retention time in (R)-PIA) induced avoidance test (performed in mice) for antagonistic activity after peroral of 0.31 mg/kg. Also on record: dose 0.31 mg/kg. Format: functional, organism-based.
For assay [27], the system named is Mus musculus. Description: Retention time in (R)-PIA) induced avoidance test (performed in mice) for antagonistic activity after peroral administration of 0.08 mg/kg. Format: functional, organism-based. Also on record: dose 0.08 mg/kg.
Assay [28] relates to Rattus norvegicus. Description: Acquisition time in Scopolamine induced avoidance test (performed in rat) for antagonistic activity after peroral administration of 1.25 mg/kg. The class given is functional. As to conditions: route oral.
The test system of assay [29] is Rattus norvegicus. The experiment in a line: Acquisition time in Scopolamine induced avoidance test (performed in rat) for antagonistic activity after peroral administration of 20 mg/kg. As to conditions: route oral. Format: functional.
The test system of assay [30] is Rattus norvegicus. The experiment in a line: Acquisition time in Scopolamine induced avoidance test (performed in rat) for antagonistic activity after peroral administration of 0.02 mg/kg. Format: functional. As to conditions: route oral.
Assay [31] deals with Rattus norvegicus. The experiment in a line: Acquisition time in Scopolamine induced avoidance test (performed in rat) for antagonistic activity after p.o. administration of 0.08 mg/kg. The class given is functional. As to conditions: route oral.
The subject of assay [32] is Rattus norvegicus. The experiment in a line: Acquisition time in Scopolamine induced avoidance test (performed in rat) for antagonistic activity after p.o. administration of 0.31 mg/kg. The class given is functional. As to conditions: route oral.
The subject of assay [33] is Rattus norvegicus. Description: Acquisition time in Scopolamine induced avoidance test (performed in rat) for antagonistic activity after p.o. administration of 5 mg/kg. As to conditions: route oral. The class given is functional.
The subject of assay [34] is Rattus norvegicus. The experiment in a line: Retention time in Scopolamine induced avoidance test (performed in […]) for antagonistic activity after peroral administration of 5 mg/kg. Format: functional, organism-based. Also noted: dose 5 mg/kg.
For assay [35], the system named is Rattus norvegicus. The experiment in a line: Retention time in Scopolamine induced avoidance test (performed in rat) for antagonistic activity after peroral administration of 0.02 mg/kg. Format: functional, organism-based. Also noted: dose 0.02 mg/kg.
Assay [36] relates to Rattus norvegicus. Description: Retention time in Scopolamine induced avoidance test (performed in rat) for antagonistic activity after p.o. administration of 0.08 mg/kg. The class given is functional, organism-based. Also noted: dose 0.08 mg/kg.
In assay [37] the test system is Rattus norvegicus. Description: Retention time in Scopolamine induced avoidance test (performed in rat) for antagonistic activity after p.o. administration of 0.31 mg/kg. The class given is functional, organism-based. Also noted: dose 0.31 mg/kg.
The test system of assay [38] is Rattus norvegicus. The experiment in a line: Retention time in Scopolamine induced avoidance test (performed in rat) for antagonistic activity after peroral administration of 1.25 mg/kg. The class given is functional, organism-based. Also noted: dose 1.25 mg/kg.
The subject of assay [39] is Rattus norvegicus. The experiment in a line: Retention time in Scopolamine induced avoidance test (performed in rat) for antagonistic activity after peroral administration of 20 mg/kg. The class given is functional, organism-based. Also on record: dose 20 mg/kg.
The test system of assay [40] is Mus musculus. Description: Acquisition time in (R)-PIA) induced avoidance test (performed in mice) for antagonistic activity after peroral administration of 5 mg/kg. As to conditions: route oral. Format: functional.

Usually Ki stands for a dissociation constant, usually derived from enzyme kinetics or from competition with a known ligand. Higher therefore signals lower affinity.

For `CCCn1c(=O)c2nc(C3CCC(=O)C3)[nH]c2n(CCC)c1=O` (configuration not stated), the Acquisition time came to 20.8 s with Mus musculus [1]; 22 s in the assay with Mus musculus [2]; 15.1 s with Mus musculus [3]; 15.1 s with Mus musculus [4]; 11.4 s in the assay on Rattus norvegicus [11]; 16.4 s with Rattus norvegicus [12]. The Acquisition time is 12.8 s in the assay with Rattus norvegicus [13], 13.2 s in the assay with Rattus norvegicus [14] and 9.8 s in the assay on Rattus norvegicus [15]. Besides, the Retention time in the assay with Mus musculus [5] is 339 s; with Mus musculus [6] it was 319 s; in the assay with Mus musculus [7] it was 322 s; in the assay with Mus musculus [8], 234 s; with Rattus norvegicus [16], 85.9 s; in the assay on Rattus norvegicus [17], 169 s. Besides, the results for the Retention time in the assay with Rattus norvegicus [18], with Rattus norvegicus [19] and in the assay with Rattus norvegicus [20] were 163 s, 75.9 s and 126 s, respectively. Also, the Locomotor activity in the assay on Mus musculus [9] came out at 8204 Counts; in the assay on Mus musculus [10], 6134 Counts.
Regarding `CCCn1c(=O)c2[nH]c(C3CCCC3)nc2n(CCC)c1=S`, the inhibition constant (Ki) is 6.6 nM at Adenosine receptor A1 and over 10000 nM on Adenosine A2 receptor. In addition, the Acquisition time with Mus musculus [21] is 24.7 s; in the assay on Mus musculus [22] it was 32.7 s; in the assay on Mus musculus [23], 12.3 s; in the assay on Rattus norvegicus [28] it was 9.9 s; in the assay with Rattus norvegicus [29], 6.7 s; in the assay on Rattus norvegicus [30] it was 8.9 s. In addition, the Acquisition time in the assay on Rattus norvegicus [31] is 9.4 s; with Rattus norvegicus [32] it was 8.9 s; in the assay with Rattus norvegicus [33], 8.5 s; in the assay with Mus musculus [40] it was 26.9 s. The Retention time with Mus musculus [24] is 52.7 s; in the assay with Mus musculus [25], 104 s; in the assay with Mus musculus [26], 121 s; in the assay on Mus musculus [27], 48.1 s; in the assay on Rattus norvegicus [34] it was 21.6 s; in the assay with Rattus norvegicus [35], 19 s. Moreover, the Retention time in the assay on Rattus norvegicus [36] was found to be 75.3 s; in the assay with Rattus norvegicus [37], 25.8 s; in the assay on Rattus norvegicus [38], 56.4 s; with Rattus norvegicus [39] it was 52.4 s.
